Key:
Assay type in all cases: functional
[1] = system: Felis catus; test: Evaluated for its relative defibrillating activity in male cats 10 min after injection at concentration 2 mg/Kg
[2] = system: Felis catus; test: Evaluated for its relative defibrillating activity in male cats 10 min after injection at concentration 1 mg/Kg
[3] = system: Felis catus; test: Evaluated for its relative defibrillating activity in male cats 10 min after injection at concentration 3 mg/Kg
[4] = system: Felis catus; test: Evaluated for its relative defibrillating activity in male cats 10 min after injection at concentration 0.5 mg/Kg
[5] = system: Felis catus; test: Evaluated for its relative defibrillating activity in male cats 10 min after injection at 3 mg/Kg
[6] = system: Felis catus; test: Evaluated for its relative defibrillating activity in male cats 10 min after injection at 2 mg/Kg
[7] = system: Felis catus; test: Evaluated for its relative defibrillating activity in male cats 10 min after injection at 1 mg/Kg
[8] = system: Felis catus; test: Evaluated for its relative defibrillating activity in male cats 10 min after injection at 0.5 mg/Kg

| Structure (SMILES) | Relative activity [1] | Relative activity [2] | Relative activity [3] | Relative activity [4] | Relative activity [5] | Relative activity [6] | Relative activity [7] | Relative activity [8] |
| --- | --- | --- | --- | --- | --- | --- | --- | --- |
| CC(C)(C)NCCC(=O)N1c2ccccc2CCc2ccccc21.Cl | 100% | 50% | 100% |  |  |  |  |  |
| CC(C)NC[C@H](O)CN1c2ccccc2CCc2ccccc21.Cl | 100% | 100% |  | 75% |  |  |  |  |
| CC(C)CNCCC(=O)N1c2ccccc2CCc2ccccc21.Cl | 0% | 0% | 0% |  |  |  |  |  |
| CNCCC(=O)N1c2ccccc2NC(=O)c2ccccc21.Cl | 0% | 0% | 0% |  |  |  |  |  |
| CC(C)NCC(O)CN1c2ccccc2CCc2ccccc21.Cl (configuration not stated) | 100% | 50% | 100% | 50% |  |  |  |  |
| CCNCCC(=O)N1c2ccccc2NC(=O)c2ccccc21.Cl | 0% |  | 0% |  |  |  |  |  |
| CC(C)NCCC(=O)N1c2ccccc2NC(=O)c2ccccc21.Cl | 0% |  | 0% |  |  |  |  |  |
| CNCCC(=O)N1c2ccccc2CCc2ccccc21.Cl |  |  |  |  | 100% | 100% | 25% | 0% |
| CC(C)NCCC(=O)N1c2ccccc2CCc2ccccc21.Cl | 100% | 75% |  | 25% | 100% |  |  |  |
| CC(C)NC[C@@H](O)CN1c2ccccc2CCc2ccccc21.Cl | 100% | 50% |  | 50% |  |  |  |  |
| Cl.O=C(CCNCc1ccccc1)N1c2ccccc2CCc2ccccc21 | 0% | 0% | 0% |  |  |  |  |  |
| CCC(C)NCCC(=O)N1c2ccccc2CCc2ccccc21.Cl (configuration not stated) | 0% | 0% | 0% |  |  |  |  |  |
| CCNCCC(=O)N1c2ccccc2CCc2ccccc21.Cl |  |  |  |  | 100% | 75% | 50% | 0% |
| CNCCCN1c2ccccc2CCc2ccccc21 [DESIPRAMINE] | 75% | 25% | 100% |  |  |  |  |  |
| CN(C)CCCN1c2ccccc2CCc2ccccc21 [IMIPRAMINE] | 50% | 0% | 75% |  |  |  |  |  |

Reference: ChEMBL document CHEMBL1133839, “A new class of antiarrhythmic-defibrillatory agents” (2001)
